The test system of assay [1] is MDA-MB-231 cell metastasis. Kind of assay: Metastasis of MDA-MB-231 xenografts (PCR of human microglobulin). In kind it is in vivo, SCID mice. The conditions noted are these: lung, brain and liver; mice sacrificed when primary tumors reached the same size. As to the method: MDA-MB-231 cells (2 × 10^6) were subcutaneously injected into the flanks of six-week-old female SCID mice. One month after injection, the mice were randomized into 2 groups and injected near the tumor with CD44v3 mimetic peptide 4 (P4) or not (control) five times in a 3-day interval. Tumor volume was determined throughout the experiment by measuring the length (l) and width (w) and was calculated as π/6 × l × w × […]. Animals were sacrificed using isoflurane anesthesia when the tumors reached a similar size, and the organs were immediately removed and stored in liquid nitrogen.
Each organ was placed in a Precellys tube with QIAzol (1 mL) for lysis using a Precellys machine (3×). […]
To assess the role of TrkA/CD44v3 in vivo, SCID mice were injected with MDA-MB-231 cells to generate xenografts. Primary tumor development and metastasis (to the lung, brain and liver) were analyzed (Fig. 6). […] The development of primary tumors was measured throughout the experiments. […] We also assessed the metastatic burden. […] Micrometastases were detected at the end of the experiment by PCR of human microglobulin in xenograft mice treated with or without the CD44v3 mimetic peptide (Fig. 6E). […]
Fig. 6 CD44v3 mimetic peptide 4 blocks MDA-MB-231 tumor growth and metastasis. […] Body weight (B) and tumor volume (C) were measured following CD44v3 mimetic peptide administration (10 mice per group). […]

Assay [2] relates to TrkA/CD44v3 complex in BT-474 cells. In words: PLA TrkA/CD44v3 complex formation in BT-474 cells. Particulars: luminal B; NGF 100 ng/ml. In kind it is cell-based. As to the method: Cells (10,000 cells per well) were grown on acid-washed eight-well glass slides (Thermo Scientific) in the appropriate medium supplemented with 10% FBS for 24 h. After NGF treatment, paraformaldehyde (PAF)-fixed cells were incubated with 4% bovine serum albumin (BSA) or 5% FBS (for 1 h at 20 °C), followed by overnight incubation with primary antibodies (rabbit anti-TrkA or rabbit anti-IgG + mouse anti-pan-CD44; mouse anti-CD44v3; mouse anti-CD44v6; mouse anti-IgG2a; mouse anti-IgG2b; or mouse anti-IgG1). PLA was performed following the manufacturer’s instructions in the assay kit (Duolink PLA; Sigma–Aldrich). To obtain the correct representation of the PLA signal for each condition, 30 fields per condition were observed using a fluorescence microscope (Eclipse TiU; Nikon, Japan). The PLA signals (red dots) were automatically quantified using ImageJ software (with an in-house-developed plug-in). […]
Fig. 7 The TrkA/CD44v3 complex is formed in PR-negative breast cancer cells and tumors. TrkA/CD44v3 complex formation was measured in SUM159-PT (triple negative—i.e., ERα-, PR-, and Her2-) cells (A), T47-D (luminal A—i.e., ERα+, PR+, and Her2-) cells (B), BT-474 (luminal B—ERα+, PR+, and Her2+) cells (C), HCC-1954 (Her2-like—ERα-, PR-, and Her2+) cells (D), and 150 tumor patient samples obtained from US BioMax (HBre-Duc150Sur01) (E, F) using the proximity ligation assay (PLA). […]

As to “IDDDEDFISST [Peptide 4, mimetic peptide 4 (…) corresponding to the C-terminal region of CD44v3]”, the “metastatic burden (in words)” value in assay [1] is recorded as “decreased the metastatic burden at each analyzed location”. As for “NGF: recombinant human β-NGF (Alomone Labs, Israel)”, the “effect on TrkA/CD44v3 complex formation (PLA) in BT-474 cells” value in assay [2] is recorded as “NGF induction was insufficient to modulate TrkA/CD44v3 complex formation in BT-474 (luminal B) cells”.

Source of the values: publication PMC8962522, “Direct interaction of TrkA/CD44v3 is essential for NGF-promoted aggressiveness of breast cancer cells” (Journal of Experimental & Clinical Cancer Research : CR, 2022).
